Results as given in PMC6973020, “Quinoline‐Conjugated Ruthenacarboranes: Toward Hybrid Drugs with a Dual Mode of Action” (Chemmedchem, 2019).
Entries after “also recorded” stand apart in the source; their conditions may differ.

Columns and labels:
[1] = system: murine microglial cell line BV‐2; experiment: Crystal violet (CV) cell viability assay, BV‐2; format: cell-based, mouse; conditions: 72 h
Source text: (§1) Thus, care must be taken when comparing their biological activities with those of our previous studies, even with the same cell line, because the covalent vs. non‐covalent combination of drugs might imply different mechanisms of action in the cell.44 Here, we studied the in vitro activity of ruthenacarborane 3, i. e. free acid, and its 8‐hydroxyquinolyl (4) and 4‐{(7‐chloroquinolin‐4‐yl)oxy}butanol‐1‐yl (5) esters, against a panel of cancer cell lines (B16 mouse melanoma, A375 human skin melanoma, MCF‐7 human breast adenocarcinoma, LN229 human glioblastoma, U251 human glioma). Human fibroblast cell line MRC‐5, murine microglial cell line BV‐2 as well as peritoneal exudate cells (Mph), were chosen as models for non‐malignant cells. […] On the other side, we wanted to assess the reproducibility of the viability data, under either controlled (with BSA) or uncontrolled (without BSA) conditions, in two sets of independent assays. […] Cells were exposed to 3–5 for 72 h, after which cell viability was determined via 3‐(4,5‐dimethylthiazol‐2‐yl)‐2,5‐diphenyltetrazolium bromide (MTT) and crystal violet (CV) assays, in parallel (Table 2). Cisplatin was also tested as reference.
Preparation of drug solutions. […] Stock solution of cisplatin was prepared in DMF (10 mM) immediately before use. A stock solution of BSA in PBS was prepared at 1.28 mM concentration, and stored at 4 °C in the dark. […] Alternatively, 3 or 4 (DMSO stock solution) were added to the BSA solution in PBS, always with a 10 : 1 molar ratio of BSA to ruthenacarborane. […]
Colorimetric assays for cellular viability. […] The absorbance was measured with an automated microplate reader at λmax 540 nm, with the reference λmax 670 nm. Untreated cells or cells treated only with BSA (control) were also measured, as reference for BSA‐free and BSA‐containing drug formulations, respectively. […] Cell viability is expressed as percentage (%) relative to control (untreated cultures).58 Experiments were run in three independent replicates. […]

[2] = system: MCF‐7 human breast adenocarcinoma; experiment: Crystal violet (CV) cell viability assay, MCF‐7; format: cell-based; conditions: 72 h
Source text: as §1
(§2) Preparation of drug solutions. […] Stock solution of cisplatin was prepared in DMF (10 mM) immediately before use. A stock solution of BSA in PBS was prepared at 1.28 mM concentration, and stored at 4 °C in the dark. […] Alternatively, 3 or 4 (DMSO stock solution) were added to the BSA solution in PBS, always with a 10 : 1 molar ratio of BSA to ruthenacarborane. The BSA−ruthenacarborane solutions were incubated 0.5–1 h at room temperature, then diluted with cell culture medium to the desired final concentrations. Final concentrations of 3 and 4 were the same as for the BSA‐free formulation. Final DMSO was 0.02–0.5 vol %.
(§3) Colorimetric assays for cellular viability. […] For counting the number of attached (viable) cells, cells were fixed with 4 % (w/v) paraformaldehyde for 10 min at room temperature, and subsequently stained for 15 min with […] crystal violet (CV) solution. Cells were then washed with tap water, dried in air, and the CV dye was dissolved in 33 % (w/v) acetic acid solution. For the detection of mitochondrial respiration, cells were cultivated in MTT staining solution (0.5 mg mL^−1) for approximately 1 h. The dye was then discarded, and the formed formazan (purple) was dissolved in DMSO. The absorbance was measured with an automated microplate reader at λmax 540 nm, with the reference λmax 670 nm. Untreated cells or cells treated only with BSA (control) were also measured, as reference for BSA‐free and BSA‐containing drug formulations, respectively. […] Cell viability is expressed as percentage (%) relative to control (untreated cultures).58 Experiments were run in three independent replicates. […]

B16 mouse melanoma = experiment: Crystal violet (CV) cell viability assay, B16; format: cell-based; conditions: 72 h
Source text: as §1, §2, §3

[3] = Stability in water‐containing DMSO‐d6 (NMR spectroscopy); format: physicochemical; conditions: in air, 1H and 11B{1H} NMR, over one month
Protocol: NMR spectroscopy. To determine the stability in biocompatible organic solvents, 3–5 (each ca. 3 mg) were dissolved in water‐containing DMSO‐d6 (0.6 mL) in air at room temperature, and periodically frozen (4–5 °C) and unfrozen. The solutions were analyzed with ^1H and ^11B{^1H} NMR spectroscopy over a period of one month.

| Substance | IC50 [1] | IC50 [2] | IC50 (B16 mouse melanoma) | stability in water‐containing DMSO‐d6 solution [3] |
| --- | --- | --- | --- | --- |
| closo‐ [Compound 3, closo‐ [3‐(η^6‐p‐Cymene)‐1‐(CH2COOH)‐3,1,2‐RuC2B9H10]] | 68.2 ± 1.3 µM | 22.9 ± 1.4 µM | 21.1 ± 2 µM | stable; also recorded: sufficient chemical stability |
| closo ‐[3‐(η^6‐p‐Cymene)‐1‐(quinolin‐8‐yl‐acetate)‐3,1,2‐RuC2B9H10] [Compound 4] | 9.2 ± 0.1 µM | 16.9 ± 1.1 µM | 24.5 ± 2.1 µM | stable; also recorded: sufficient chemical stability |
